One may read the IC50 as the point on the concentration scale where inhibition reaches its midpoint. A lower IC50 goes with greater potency.

Our source for the IC50 values is patent US9062071B2, “Substituted piperidines as HDM2 inhibitors” (Merck Sharp & Dohme Corp, priority 2011, dated 2015).

This experiment deals with HDM2 protein (Homo sapiens, UniProt Q00987). The experiment is described as follows: fluorescence polarization screening assay (FP IC50). The class given is binding. The following applies: class symbols. As to the method:
The compounds were evaluated to determine activity at the HDM2 protein by known methods such as the fluorescence polarization screening assay that measures the inhibitory concentration that achieves 50% of maximal activity (FP IC50) and the dissociation constant for inhibitor binding (FP Ki). [Zhang et al., J. Analytical Biochemistry 331: 138-146 (2004)].
(Polarisation of emitted light reports the rotation of a fluorescent probe.)

Molecules are shown by their SMILES.

HDM2 protein, sequence (Q00987 whole entry): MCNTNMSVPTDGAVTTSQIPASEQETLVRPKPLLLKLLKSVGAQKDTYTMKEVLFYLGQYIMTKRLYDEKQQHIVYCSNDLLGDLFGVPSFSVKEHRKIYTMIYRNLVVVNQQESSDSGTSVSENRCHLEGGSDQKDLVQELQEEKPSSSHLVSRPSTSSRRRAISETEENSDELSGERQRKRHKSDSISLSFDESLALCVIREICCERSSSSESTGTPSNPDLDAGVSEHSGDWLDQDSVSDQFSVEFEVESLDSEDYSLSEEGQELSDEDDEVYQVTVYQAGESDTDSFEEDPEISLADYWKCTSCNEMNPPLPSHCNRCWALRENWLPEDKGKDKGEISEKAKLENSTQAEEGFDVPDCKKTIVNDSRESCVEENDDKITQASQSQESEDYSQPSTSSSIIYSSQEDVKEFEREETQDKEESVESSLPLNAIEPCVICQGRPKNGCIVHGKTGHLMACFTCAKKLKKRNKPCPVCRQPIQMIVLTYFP

`NC(=O)C1c2ccc(Cl)cc2CCN1C(=O)[C@]1(Oc2csc(C(F)(F)F)c2)CCCN(C(=O)c2ncccc2C(F)(F)F)[C@@H]1CC(=O)O` (stereo partly drawn) [Compound A95, [(2R,3S)-3-[(1-carbamoyl-6-chloro-3,4-dihydroisoquinolin-2(1H)-yl)carbonyl]-1-{[3-(trifluoromethyl)pyridin-2-yl]carbonyl}-3-{[5-(trifluoromethyl)thiophen-3-yl]oxy}piperidin-2-yl]acetic acid] displayed an IC50 of 1 to 100 nM.

As for `CCC[C@H]1N(C(=O)c2ncccc2C(F)(F)F)CCC[C@@]1(Oc1csc(C(F)(F)F)c1)C(=O)N1CCc2cc(Cl)ccc2C1C1CCC(C(=O)O)C1` (stereo partly drawn) [Compound A96, 3-(6-chloro-2-{[(2R,3S)-2-propyl-1-{[3-(trifluoromethyl)pyridin-2-yl]carbonyl}-3-{[5-(trifluoromethyl)thiophen-3-yl]oxy}piperidin-3-yl]carbonyl}-1,2,3,4-tetrahydroisoquinolin-1-yl)cyclopentanecarboxylic acid], the IC50 lay in the range of 1 to 100 nM.

Take `NC(=O)C1c2ccc(Cl)cc2CCN1C(=O)[C@]1(Oc2csc(C(F)(F)F)c2)CCCN(C(=O)c2ncccc2C(F)(F)F)[C@@H]1CC(=O)O` (stereo partly drawn) [Compound A97, [(2R,3S)-3-[(1-carbamoyl-6-chloro-3,4-dihydroisoquinolin-2(1H)-yl)carbonyl]-1-{[3-(trifluoromethyl)pyridin-2-yl]carbonyl}-3-{[5-(trifluoromethyl)thiophen-3-yl]oxy}piperidin-2-yl]acetic acid]: the IC50 was 1 to 100 nM.

`CCC[C@H]1N(C(=O)c2ncccc2C(F)(F)F)CCC[C@@]1(Oc1csc(C(F)(F)F)c1)C(=O)N1CCc2cc(Cl)ccc2[C@H]1CCC(=O)N1CCC(C(=O)O)CC1` [Compound A98, 1-{3-[(1R)-6-chloro-2-{[(2R,3S)-2-propyl-1-{[3-(trifluoromethyl)pyridin-2-yl]carbonyl}-3-{[5-(trifluoromethyl)thiophen-3-yl]oxy}piperidin-3-yl]carbonyl}-1,2,3,4-tetrahydroisoquinolin-1-yl]propanoyl}piperidine-4-carboxylic acid] registered an IC50 of 1 to 100 nM.

In turn, `CCC[C@H]1N(C(=O)c2ncccc2C(F)(F)F)CCC[C@@]1(Oc1csc(C(F)(F)F)c1)C(=O)N1CCc2cc(Cl)ccc2[C@@H]1CCC(=O)N1CCC(C(=O)O)CC1` [Compound A99, 1-{3-[(1S)-6-chloro-2-{[(2R,3S)-2-propyl-1-{[3-(trifluoromethyl)pyridin-2-yl]carbonyl}-3-{[5-(trifluoromethyl)thiophen-3-yl]oxy}piperidin-3-yl]carbonyl}-1,2,3,4-tetrahydroisoquinolin-1-yl]propanoyl}piperidine-4-carboxylic acid] yielded an IC50 of 1 to 100 nM.

For `CCC[C@H]1N(C(=O)c2ncccc2C(F)(F)F)CCC[C@@]1(Oc1csc(C(F)(F)F)c1)C(=O)N1CCc2cc(Cl)ccc2C1C(=O)O` (stereo partly drawn) [Compound A100, 6-chloro-2-{[(2R,3S)-2-propyl-1-{[3-(trifluoromethyl)pyridin-2-yl]carbonyl}-3-{[5-(trifluoromethyl)thiophen-3-yl]oxy}piperidin-3-yl]carbonyl}-1,2,3,4-tetrahydroisoquinoline-1-carboxylic acid], the IC50 lay within 1 to 100 nM.

As for `CCC[C@H]1N(C(=O)c2ncccc2C(F)(F)F)CCC[C@@]1(Oc1csc(C(F)(F)F)c1)C(=O)N1CCc2cc(F)ccc2C1C(=O)O` (stereo partly drawn) [Compound A101, 6-fluoro-2-{[(2R,3S)-2-propyl-1-{[3-(trifluoromethyl)pyridin-2-yl]carbonyl}-3-{[5-(trifluoromethyl)thiophen-3-yl]oxy}piperidin-3-yl]carbonyl}-1,2,3,4-tetrahydroisoquinoline-1-carboxylic acid], the IC50 is 1 to 100 nM.

The compound `CCC[C@H]1N(C(=O)c2ncccc2C(F)(F)F)CCC[C@@]1(Oc1csc(C(F)(F)F)c1)C(=O)N1CCc2cc(Cl)ccc2C1C(=O)O` (stereo partly drawn) [Compound A102, 6-chloro-2-{[(2R,3S)-2-propyl-1-{[3-(trifluoromethyl)pyridin-2-yl]carbonyl}-3-{[5-(trifluoromethyl)thiophen-3-yl]oxy}piperidin-3-yl]carbonyl}-1,2,3,4-tetrahydroisoquinoline-1-carboxylic acid] registered an IC50 of 1 to 100 nM.

For `CCC[C@H]1N(C(=O)c2ncccc2C(F)(F)F)CCC[C@@]1(Oc1csc(C(F)(F)F)c1)C(=O)N1CCc2cc(Cl)ccc2C1CO` (stereo partly drawn) [Compound A103, (6-chloro-2-{[(2R,3S)-2-propyl-1-{[3-(trifluoromethyl)pyridin-2-yl]carbonyl}-3-{[5-(trifluoromethyl)thiophen-3-yl]oxy}piperidin-3-yl]carbonyl}-1,2,3,4-tetrahydroisoquinolin-1-yl)methanol], the 50% inhibitory concentration (IC50) was in the range of 101 to 20000 nM.

On to `CCC[C@H]1N(C(=O)c2ncccc2C(F)(F)F)CCC[C@@]1(Oc1csc(C(F)(F)F)c1)C(=O)N1CCc2cc(F)ccc2C1C(=O)O` (stereo partly drawn) [Compound A104, 6-fluoro-2-{[(2R,3S)-2-propyl-1-{[3-(trifluoromethyl)pyridin-2-yl]carbonyl}-3-{[5-(trifluoromethyl)thiophen-3-yl]oxy}piperidin-3-yl]carbonyl}-1,2,3,4-tetrahydroisoquinoline-1-carboxylic acid], for which the IC50 is 1 to 100 nM.

Consider `CCC[C@H]1N(C(=O)c2ncccc2C(F)(F)F)CCC[C@@]1(Oc1csc(C(F)(F)F)c1)C(=O)N1CCc2cc(Cl)ccc2C1CO` (stereo partly drawn) [Compound A105, (6-chloro-2-{[(2R,3S)-2-propyl-1-{[3-(trifluoromethyl)pyridin-2-yl]carbonyl}-3-{[5-(trifluoromethyl)thiophen-3-yl]oxy}piperidin-3-yl]carbonyl}-1,2,3,4-tetrahydroisoquinolin-1-yl)methanol], for which the IC50 lay within 101 to 20000 nM.

The compound `CCC[C@H]1N(C(=O)c2ncccc2C(F)(F)F)CCC[C@@]1(Oc1csc(C(F)(F)F)c1)C(=O)N1CCc2cc(Cl)ccc2C1COC` (stereo partly drawn) [Compound A106, 6-chloro-1-(methoxymethyl)-2-{[(2R,3S)-2-propyl-1-{[3-(trifluoromethyl)pyridin-2-yl]carbonyl}-3-{[5-(trifluoromethyl)thiophen-3-yl]oxy}piperidin-3-yl]carbonyl}-1,2,3,4-tetrahydroisoquinoline] gave an IC50 of 1 to 100 nM.

As to `CCC[C@H]1N(C(=O)c2ncccc2C(F)(F)F)CCC[C@@]1(Oc1csc(C(F)(F)F)c1)C(=O)N1CCc2cc(Cl)ccc2C1COC` (stereo partly drawn) [Compound A107, 6-chloro-1-(methoxymethyl)-2-{[(2R,3S)-2-propyl-1-{[3-(trifluoromethyl)pyridin-2-yl]carbonyl}-3-{[5-(trifluoromethyl)thiophen-3-yl]oxy}piperidin-3-yl]carbonyl}-1,2,3,4-tetrahydroisoquinoline], the IC50 fell in the range of 101 to 20000 nM.

Take `CCC[C@H]1N(C(=O)c2ncccc2C(F)(F)F)CCC[C@@]1(Oc1csc(C(F)(F)F)c1)C(=O)N1CCc2cc(Cl)ccc2C1CC(C)(C)C(=O)O` (stereo partly drawn) [Compound A108, 3-(6-chloro-2-{[(2R,3S)-2-propyl-1-{[3-(trifluoromethyl)pyridin-2-yl]carbonyl}-3-{[5-(trifluoromethyl)thiophen-3-yl]oxy}piperidin-3-yl]carbonyl}-1,2,3,4-tetrahydroisoquinolin-1-yl)-2,2-dimethylpropanoic acid]: the IC50 lay within 1 to 100 nM.

`CCC[C@H]1N(C(=O)c2ncccc2C(F)(F)F)CCC[C@@]1(Oc1csc(C(F)(F)F)c1)C(=O)N1CCc2cc(Cl)ccc2C1(CCO)C(N)=O` (stereo partly drawn) [Compound A109, 6-chloro-1-(2-hydroxyethyl)-2-{[(2R,3S)-2-propyl-1-{[3-(trifluoromethyl)pyridin-2-yl]carbonyl}-3-{[5-(trifluoromethyl)thiophen-3-yl]oxy}piperidin-3-yl]carbonyl}-1,2,3,4-tetrahydroisoquinoline-1-carboxamide] returned an IC50 of 1 to 100 nM.

In turn, `CCCC1N(C(=O)c2ncccc2C(F)(F)F)CCCC1(Oc1ccc(OC(F)(F)F)cc1)C(=O)N1CCc2cc(F)ccc2C1` (centres unmarked) [Compound A110, 6-fluoro-2-[(2-propyl-3-[4-(trifluoromethoxy)phenoxy]-1-{[3-(trifluoromethyl)pyridin-2-yl]carbonyl}piperidin-3-yl)carbonyl]-1,2,3,4-tetrahydroisoquinoline] registered an IC50 of 101 to 20000 nM.

The compound `CCC[C@H]1N(C(=O)c2ncccc2C(F)(F)F)CCC[C@@]1(Oc1ccc(OC(F)(F)F)cc1)C(=O)N1CCc2cc(Cl)ccc2[C@@H]1CCC(=O)O` [Compound A111] registered an IC50 of 1 to 100 nM.

With `O=C(c1ncccc1C(F)(F)F)N1CCC[C@@](Oc2csc(C(F)(F)F)c2)(C(=O)N2CCc3cc(Cl)ccc3C2)[C@H]1CCNC1CCOCC1` [Compound A112, N-{2-[(2R,3S)-3-[(6-chloro-3,4-dihydroisoquinolin-2(1H)-yl)carbonyl]-1-{[3-(trifluoromethyl)pyridin-2-yl]carbonyl}-3-{[5-(trifluoromethyl)thiophen-3-yl]oxy}piperidin-2-yl]ethyl}tetrahydro-2H-pyran-4-amine], the IC50 fell in the range of 1 to 100 nM.

As for `C=CC[C@H]1N(C(=O)c2ncccc2C(F)(F)F)CCC[C@@]1(Oc1csc(C(F)(F)F)c1)C(=O)N1CCc2cc(Cl)ccc2C1C(=O)O` (stereo partly drawn) [Compound A113, 6-chloro-2-{[(2R,3S)-2-prop-2-en-1-yl-1-{[3-(trifluoromethyl)pyridin-2-yl]carbonyl}-3-{[5-(trifluoromethyl)thiophen-3-yl]oxy}piperidin-3-yl]carbonyl}-1,2,3,4-tetrahydroisoquinoline-1-carboxylic acid], the IC50 lay within 1 to 100 nM.

With `CCN1CCN(CC[C@H]2N(C(=O)c3ncccc3C(F)(F)F)CCC[C@@]2(Oc2csc(C(F)(F)F)c2)C(=O)N2CCc3cc(Cl)ccc3C2)CC1` [Compound A114, 6-chloro-2-{[(2R,3S)-2-[2-(4-ethylpiperazin-1-yl)ethyl]-1-{[3-(trifluoromethyl)pyridin-2-yl]carbonyl}-3-{[5-(trifluoromethyl)thiophen-3-yl]oxy}piperidin-3-yl]carbonyl}-1,2,3,4-tetrahydroisoquinoline], the IC50 lay in the range of 1 to 100 nM.
